Measured values as given in patent EP4640052A1 (BASF SE, priority 2024, dated 2025).
Values joined by “and” are separate entries in the source; they are usually repeats but may differ in a detail not shown here. Identical values can stand only once.

How the values were obtained:
[1] = system: Pyricularia oryzae (PYRIOR); assay: microbe, parasite or virus in culture; assay type: cell-based; settings: for Observed efficacy: single active
[2] = system: Alternaria solani (ALTESO); assay: microbe, parasite or virus in culture; assay type: cell-based; settings: for inhibition of growth at 0.016 ppm / inhibition of growth at 0.063 ppm / inhibition of growth at 0.25 ppm / inhibition of growth at 1 ppm: Alternaria solani, 168 h, read-out: Observed efficacy
Monilinia sp. (MONISP) = assay: microbe, parasite or virus in culture; assay type: cell-based
[3] = system: Pyrenophora teres (PYRNTE), Qol resistant (F129L); assay: microbe, parasite or virus in culture; assay type: cell-based; settings: for inhibition of growth at 0.016 ppm / inhibition of growth at 0.063 ppm / inhibition of growth at 0.25 ppm / inhibition of growth at 1 ppm: Pyrenophora teres, 168 h, read-out: Observed efficacy
[4] = system: Sclerotinia sclerotiorum (SCLESC); assay: microbe, parasite or virus in culture; assay type: cell-based
[5] = system: Septoria tritici (SEPTTR); assay: microbe, parasite or virus in culture; assay type: cell-based
Phakopsora pachyrhizi = assay: Green house use example 13: curative control of soybean rust on soybeans (PHAKPA F129L K4); assay type: in vivo; settings: Trial 3, single compound
[6] = Pyricularia oryzae, 168 h, read-out: Observed efficacy
[7] = Monilinia, 168 h, read-out: Observed efficacy
[8] = Sclerotinia sclerotiorum, 168 h, read-out: Observed efficacy
[9] = Zymoseptoria tritici, 168 h, read-out: Observed efficacy

Compound	inhibition of growth at 0.016 ppm [1, 6] [%]	inhibition of growth at 0.063 ppm [1, 6] [%]	inhibition of growth at 1 ppm [1, 6] [%]	inhibition of growth at 0.063 ppm [2] [%]	inhibition of growth at 0.25 ppm [2] [%]	inhibition of growth at 0.016 ppm [3] [%]	inhibition of growth at 0.063 ppm [3] [%]	inhibition of growth at 0.25 ppm [3] [%]	inhibition of growth at 1 ppm [3] [%]	inhibition of growth at 0.063 ppm [4, 8] [%]	Observed efficacy ([1]; 0.063 ppm) [%]	also measured
CO/C=C(/C(=O)OC)c1cccc(Cl)c1CO/N=C(\COC)c1ccc(F)cc1F [I.6, Methyl (E)-2-[3-chloro-2-[[(Z)-[1-(2,4-difluorophenyl)-2-methoxy-ethylidene]amino]-oxymethyl]phenyl]-3-methoxy-prop-2-enoate]	0	0	24	18	34	2	27	42	54	5		inhibition of growth at 0.004 ppm [1, 6]: 0%; inhibition of growth at 0.016 ppm [2]: 10%; inhibition of growth at 0.016 ppm (Monilinia sp. (MONISP); [7]): 10%; inhibition of growth at 0.063 ppm (Monilinia sp. (MONISP); [7]): 7%; inhibition of growth at 0.016 ppm [4, 8]: 4%; inhibition of growth at 1 ppm [4, 8]: 47%
CO/C=C(/C(=O)OC)c1cccc(F)c1CO/N=C(\COC)c1c(F)cc(F)cc1F [I.8, Methyl (E)-2-[3-fluoro-2-[[(Z)-[2-methoxy-1-(2,4,6-trifluorophenyl)ethylidene]amino]-oxymethyl]phenyl]-3-methoxy-prop-2-enoate]	0	0	18	0	4	1	14	20	44	0		inhibition of growth at 0.25 ppm [1, 6]: 2%; inhibition of growth at 0.016 ppm [2]: 2%; inhibition of growth at 1 ppm [2]: 59%; inhibition of growth at 0.25 ppm (Monilinia sp. (MONISP); [7]): 42%
mancozeb [reference compound]											54	Observed efficacy ([1]; 0.004 ppm): 11%; Observed efficacy ([1]; 0.016 ppm): 34%; Observed efficacy [5]: 18 and 19 and 13; Observed efficacy [3]: 59; Observed efficacy [4]: 59
OC(Cc1ccccc1Cl)(Cn1nc[nH]c1=S)C1(Cl)CC1 (centres unmarked) [prothioconazole, reference compound]			12		10							inhibition of growth at 0.25 ppm [1, 6]: 1%; inhibition of growth at 0.063 ppm [5, 9]: 5%; inhibition of growth at 0.25 ppm [5, 9]: 67%; inhibition of growth at 1 ppm [2]: 14%; inhibition of growth at 0.004 ppm (Monilinia sp. (MONISP); [7]): 19%
Cc1cccc(-n2nnn(C)c2=O)c1COc1ccn(-c2ccc(Cl)cc2)n1 [metyltetraprole, reference compound]											70	Observed efficacy ([1]; 0.016 ppm): 30%; Observed efficacy [2]: 22; Observed efficacy (Monilinia sp. (MONISP)): 17
CO/C=C(/C(=O)OC)c1cccc(Cl)c1CO/N=C(\COC)c1ccc(F)cc1 [I.5, Methyl-(E)-2-[3-chloro-2-[[(Z)-[1-(4-fluorophenyl)-2-methoxy-ethylidene]amino]-oxy¬imethyl]phenyl]-3-methoxy-prop-2-enoate]											28	Observed efficacy (Monilinia sp. (MONISP)): 56; Observed efficacy [4]: 0
metarylpicoxamid												Observed efficacy (Phakopsora pachyrhizi; 1 ppm): 20; Observed efficacy (Phakopsora pachyrhizi; 2 ppm): 66
CO/C=C(/C(=O)OC)c1cccc(Br)c1CO/N=C(\COC)c1ccccc1 [I.2, Methyl (E)-2-[3-bromo-2-[[(Z)-(2-methoxy-1-phenyl-ethylidene)amino]oxymethyl]-phenyl]-3-methoxy-prop-2-enoate]	0	0	31	36		7	34	44	60	7		inhibition of growth at 0.001 ppm (Monilinia sp. (MONISP); [7]): 0%; inhibition of growth at 0.016 ppm (Monilinia sp. (MONISP); [7]): 0%; inhibition of growth at 0.063 ppm (Monilinia sp. (MONISP); [7]): 18%; inhibition of growth at 1 ppm [4, 8]: 41%
